{"source": "patent US20110038889A1", "about": "“METHODS AND COMPOSITIONS FOR ALTERING CELL FUNCTION” (ALLTECH, INC., priority 2005, published 2011)", "key": {"[1]": {"assay": "Hen brain Se concentration after dietary selenium sources", "type": "in vivo, White-Egg-Laying Hens", "details": "0.3 ppm Se in hen diet; basal diet 870 ppb; Selenosource one sample only", "protocol": "(§1) Compositions and methods of the present invention were utilized to evaluate the effects of various Se sources on the accumulation of brain Se concentrations in hens and their offspring.\n(§2) The study was conducted at the Coldstream Research Facility from Jun. 28, 2004 until Nov. 16, 2004. Six dietary treatments were fed to a total of 48 hens (r=8) that were bred on three consecutive days starting on Sep. 16, 2004.\n(§3) The dietary treatments were as follows: Basal (no added Se) Selenite (0.3 ppm) SEL-PLEX (0.3 ppm) Tepsel (0.3 ppm) Se 2000 (0.3 ppm) Selenosource (0.3 ppm)\n(§4) Chicks that hatched were divided into two groups. Half of the chicks were killed for brain collection and the remaining chicks were allowed to grow for 14 days on a Se deficient diet, at which time they were terminated for brain collection. Hen brains were analyzed for Se content individually, whereas the chick brains were homogenized and pooled because of small sample size."}, "[2]": {"assay": "Chick brain Se concentration at day 14 (offspring of treated hens)", "type": "in vivo, chicks (offspring of white-egg-laying hens)", "details": "chicks of hens fed 0.3 ppm Se; chicks grown 14 days on Se deficient diet; pooled brains; basal 786 ppb", "protocol": "as §1, §2, §3, §4"}, "[3]": {"tested_on": "Type 1 iodothyronine deiodinase", "assay": "Microarray gene expression, mouse intestine: Type 1 iodothyronine deiodinase", "type": "in vivo", "details": "diet 1 ppm Se, 100 days, vs selenium-deficient diet", "excerpt": "(§5) Animal Care. Male C57BL/6J mice were housed singly and started on the experimental diets described below immediately after weaning (21 days of age). The mice were maintained in the Shared Aging Rodent Facility at the William S. Middleton Memorial Veterans Administration Medical Center (Madison, Wis.). Temperature and humidity were maintained at constant levels. Room light was controlled to provide 12-hr cycles of light and dark.\n(§6) Experimental diets were created by Harlan Teklad (Madison, Wis.). Selenium content of the diets was determined by Covance Inc. (Madison, Wis.). Five (5) animals were included in each of the following treatment groups: a diet deficient in selenium (SD); a diet supplemented with selenomethionine (SM, obtained from Sigma,St. Louis, Mo.) such that the final selenium content of the diet was one (1) part per million; a diet supplemented with sodium selenite (SS, Sigma) such that the final concentration of selenium in this diet was one (1) part per million; or a diet supplemented with the yeast selenium SEL-PLEX (SP, Alltech, Lexington, Ky.), such that the final concentration of selenium in this diet was one (1) part per million. SEL-PLEX. […]\n(§7) Tissue sample preparation and microarray analysis. […] For intestinal expression studies, the intestine was flushed twice with saline solution and small intestine was measured and divided in three equal segments. […]"}, "Selenoprotein W (SelW)": {"tested_on": "Selenoprotein W (SelW)", "assay": "Microarray gene expression, mouse intestine: SelW", "type": "in vivo", "details": "diet 1 ppm Se, 100 days, vs selenium-deficient diet", "excerpt": "as §5, §6, §7"}, "selenoprotein N1 (Sepn1)": {"tested_on": "selenoprotein N1 (Sepn1)", "assay": "Microarray gene expression, mouse intestine: Sepn1", "type": "in vivo", "details": "diet 1 ppm Se, 100 days, vs selenium-deficient diet, p<0.02 for SEL-PLEX", "excerpt": "as §5, §6, §7"}, "SelR (Selenoprotein X1)": {"tested_on": "SelR (Selenoprotein X1)", "assay": "Microarray gene expression, mouse intestine: SelR", "type": "in vivo", "details": "diet 1 ppm Se, 100 days, vs selenium-deficient diet, p<0.01 Sod-sel, p<0.05 SEL-PLEX", "excerpt": "as §5, §6, §7"}, "[4]": {"tested_on": "type II iodothyronine deiodinase (Dio2)", "assay": "Microarray gene expression, mouse intestine: Dio2", "type": "in vivo", "details": "Example 4 (intestine); diet 1 ppm Se, 100 days; vs selenium-deficient diet", "excerpt": "as §5, §6, §7"}, "Glyoxalase 1 (Glo1)": {"tested_on": "Glyoxalase 1 (Glo1)", "assay": "Microarray gene expression, mouse intestine: Glo1", "type": "in vivo", "details": "Example 4 (intestine); diet 1 ppm Se, 100 days; vs selenium-deficient diet; p<0.01 for SEL-PLEX", "excerpt": "as §5, §6, §7"}, "[5]": {"tested_on": "Growth arrest and DNA-damage-inducible 45 gamma (Gadd45g)", "assay": "Microarray gene expression, mouse intestine: Gadd45g", "type": "in vivo", "details": "diet 1 ppm Se, 100 days, vs selenium-deficient diet, negative = down-regulated", "excerpt": "as §5, §6, §7"}, "[6]": {"tested_on": "LIM homeobox protein 8 gene (Lhx8)", "assay": "Microarray gene expression, mouse intestine: Lhx8", "type": "in vivo", "details": "Example 5 (intestine); diet 1 ppm Se, 100 days; vs Se-deficient subjects; p<0.01 for SEL-PLEX", "excerpt": "as §5, §6, §7"}, "[7]": {"tested_on": "transforming growth factor beta 2 (TGF-β2)", "assay": "Microarray gene expression, mouse intestine: TGF-β2", "type": "in vivo", "details": "Example 5 (intestine); diet 1 ppm Se, 100 days; compared to controls", "excerpt": "as §5, §6, §7"}, "Neurogenin 3 (Neurog3)": {"tested_on": "Neurogenin 3 (Neurog3)", "assay": "Microarray gene expression, mouse intestine: Neurog3", "type": "in vivo", "details": "Example 6 (intestine); diet 1 ppm Se, 100 days; vs selenium-deficient diet", "excerpt": "as §5, §6, §7"}, "[8]": {"tested_on": "sprouty homolog 2 gene (Spry2)", "assay": "Microarray gene expression, mouse intestine: Spry2", "type": "in vivo", "details": "Example 7 (intestine); diet 1 ppm Se, 100 days; relative to Se-deficient controls", "excerpt": "as §5, §6, §7"}, "[9]": {"tested_on": "Complement component 1, q subcomponent, gamma polypeptide, C1qg", "assay": "Microarray gene expression, mouse cerebral cortex: C1qg", "type": "in vivo", "details": "diet 1 ppm Se, 100 days, vs selenium-deficient diet, negative = down-regulated, * p<0.01", "excerpt": "as §5, §6, §7"}, "CORS-26": {"tested_on": "CORS-26", "assay": "Microarray gene expression, mouse cerebral cortex: CORS-26", "type": "in vivo", "details": "Example 10 (cerebral cortex); diet 1 ppm Se, 100 days; vs selenium-deficient diet", "excerpt": "as §5, §6, §7"}, "[10]": {"assay": "Body weight of mice on selenium diets", "type": "in vivo, mouse", "excerpt": "as §5\nExperimental diets were created by Harlan Teklad (Madison, Wis.). Selenium content of the diets was determined by Covance Inc. (Madison, Wis.). […]\nThus, it was an object of the present invention to determine whether compositions and methods of the present invention could alter the expression levels (e.g., mRNA levels) of various genes. One group of genes analyzed were genes classically associated with selenium. As described above, the expression levels of genes were analyzed between mice with and without dietary selenium, or, between mice fed different sources of selenium) (See, e.g., Table 1, below)."}, "[11]": {"tested_on": "Thioredoxin Reductase 1 gene", "assay": "Microarray gene expression, mouse intestine: Thioredoxin Reductase 1", "type": "in vivo", "details": "diet 1 ppm Se, 100 days, vs selenium-deficient diet, all p <0.01", "excerpt": "as §5, §6, §7"}, "[12]": {"tested_on": "Glutathione S-transferase, alpha 3 (Gsta3)", "assay": "Microarray gene expression, mouse intestine: Gsta3", "type": "in vivo", "details": "diet 1 ppm Se, 100 days, vs Se-deficient diets, negative = down-regulated, NS = not significant", "excerpt": "as §5, §6, §7"}, "[13]": {"tested_on": "Glutathione S-transferase, mu1 (Gstm1)", "assay": "Microarray gene expression, mouse intestine: Gstm1", "type": "in vivo", "details": "diet 1 ppm Se, 100 days, vs Se-deficient diets, negative = down-regulated, NS = not significant", "excerpt": "as §5, §6, §7"}, "[14]": {"tested_on": "Glutathione S-transferase, mu2 (Gstm2)", "assay": "Microarray gene expression, mouse intestine: Gstm2", "type": "in vivo", "details": "diet 1 ppm Se, 100 days, vs Se-deficient diets, negative = down-regulated, NS = not significant", "excerpt": "as §5, §6, §7"}, "[15]": {"tested_on": "Glutathione S-transferase, mu3 (Gstm3)", "assay": "Microarray gene expression, mouse intestine: Gstm3", "type": "in vivo", "details": "diet 1 ppm Se, 100 days, vs Se-deficient diets, negative = down-regulated, NS = not significant", "excerpt": "as §5, §6, §7"}, "[16]": {"tested_on": "Glutathione S-transferase, theta 2 (Gstt2)", "assay": "Microarray gene expression, mouse intestine: Gstt2", "type": "in vivo", "details": "diet 1 ppm Se, 100 days, vs Se-deficient diets, negative = down-regulated, NS = not significant", "excerpt": "as §5, §6, §7"}, "Cathepsin Z": {"tested_on": "Cathepsin Z", "assay": "Microarray gene expression, mouse cerebral cortex: Cathepsin Z", "type": "in vivo", "details": "diet 1 ppm Se, 100 days, relative to Se-deficient mice, negative = down-regulated, * significant", "excerpt": "as §5, §6, §7"}, "Gst zeta 1 (Gstz1)": {"tested_on": "Gst zeta 1 (Gstz1)", "assay": "Microarray gene expression, mouse brain: Gstz1", "type": "in vivo", "details": "diet 1 ppm Se, 100 days, relative to Se-deficient animals, negative = down-regulated, * significant", "excerpt": "as §5, §6, §7"}, "calpain-5": {"tested_on": "calpain-5", "assay": "Expression level of calpain genes after selenium administration", "type": "in vivo", "details": "tissue not stated; + up, − down; * not explained at this place", "protocol": "Compositions and methods of the present invention were analyzed to determine if they were capable of altering the expression levels of calpain genes. Compositions comprising various forms of selenium (e.g., SeM, Sod-sel, and SEL-PLEX) were administered to subjects and the expression levels of calpain genes monitored. The expression level of calpain-5 was altered by treatment in the following ways: free selenomethionine (SM) +1.32*, Sod-sel −1.07, SEL-PLEX −1.44*."}}}
{"smiles": "O=[Se](O)O", "note": "[Selenite]", "values": [{"measurement": "Hen Brain Se Concentration", "setting": "[1]", "result": 850, "unit": "ppb"}, {"measurement": "Chick Brain Se Concentration at day 14", "setting": "[2]", "result": 784, "unit": "ppb"}]}
{"smiles": "C[Se]CC[C@H](N)C(=O)O", "note": "[SeM, selenomethionine]", "values": [{"measurement": "Fold increase in expression level of Type 1 iodothyronine deiodinase", "setting": "[3]", "result": 2.0, "unit": "fold"}, {"measurement": "Fold upregulation of Selenoprotein W (SelW) expression", "setting": "Selenoprotein W (SelW)", "result": "not significantly altered"}, {"measurement": "Fold increase of selenoprotein N1 (Sepn1) gene expression", "setting": "selenoprotein N1 (Sepn1)", "result": "not significantly affected"}, {"measurement": "Fold upregulation of SelR gene expression", "setting": "SelR (Selenoprotein X1)", "result": "not significantly affected"}, {"measurement": "Fold down-regulation of Dio2 expression", "setting": "[4]", "result": "no ability to alter"}, {"measurement": "Fold reduction of Glo1 expression", "setting": "Glyoxalase 1 (Glo1)", "result": "not significantly affected"}, {"measurement": "FC (fold change) of Gadd45g expression", "setting": "[5]", "result": "−1.5 (p < 0.05) fold"}, {"measurement": "Fold upregulation of Lhx8 expression", "setting": "[6]", "result": "not significantly different"}, {"measurement": "Fold upregulation of TGF-β2 expression", "setting": "[7]", "result": "not altered"}, {"measurement": "Fold upregulation of Neurog3 expression", "setting": "Neurogenin 3 (Neurog3)", "result": "no significant alteration"}, {"measurement": "Fold reduction in Spry2 gene expression", "setting": "[8]", "result": "no alteration"}, {"measurement": "FC (fold change) of C1qg expression", "setting": "[9]", "result": 1.0, "unit": "fold"}, {"measurement": "Fold reduction in expression of CORS-26", "setting": "CORS-26", "result": "no alteration"}, {"measurement": "Body weights of mice", "setting": "[10]; mouse, in vivo", "result": "No significant differences"}]}
{"smiles": "O=[Se](O)O", "note": "[Sod-sel, sodium selenite]", "values": [{"measurement": "Fold increase in expression of the Thioredoxin Reductase 1 gene", "setting": "[11]", "result": 1.7, "unit": "fold"}, {"measurement": "Fold increase in expression level of Type 1 iodothyronine deiodinase", "setting": "[3]", "result": 2.8, "unit": "fold"}, {"measurement": "Fold upregulation of Selenoprotein W (SelW) expression", "setting": "Selenoprotein W (SelW)", "result": 5.1, "unit": "fold"}, {"measurement": "Fold upregulation of SelR gene expression", "setting": "SelR (Selenoprotein X1)", "result": 1.3, "unit": "fold"}, {"measurement": "FC (fold change) of Gadd45g expression", "setting": "[5]", "result": "−2.0 (p < 0.01) fold"}, {"measurement": "FC (fold change) of Gsta3 expression", "setting": "[12]", "result": "−2.3", "unit": "fold"}, {"measurement": "FC (fold change) of Gstm1 expression", "setting": "[13]", "result": "−2.4", "unit": "fold"}, {"measurement": "FC (fold change) of Gstm2 expression", "setting": "[14]", "result": "−2.1", "unit": "fold"}, {"measurement": "FC (fold change) of Gstm3 expression", "setting": "[15]", "result": "−2.7", "unit": "fold"}, {"measurement": "FC (fold change) of Gstt2 expression", "setting": "[16]", "result": "−1.3", "unit": "fold"}, {"measurement": "FC (fold change) of Cathepsin Z expression", "setting": "Cathepsin Z", "result": "−1.30* fold"}, {"measurement": "FC (fold change) of Gstz1 expression in brain", "setting": "Gst zeta 1 (Gstz1)", "result": "−1.3", "unit": "fold"}, {"measurement": "Alteration of expression level of calpain-5", "setting": "calpain-5", "result": "−1.07"}, {"measurement": "Body weights of mice", "setting": "[10]; compared among selenium-deficient, Se-meth, Sod-sel and SEL-PLEX diets (FIG. 1)", "result": "No significant differences"}]}
